Like-named read-outs stand apart in the source and are kept apart here.
What was measured:
HT-29 cells = assay: Hoechst/propidium iodide cell death assay in HT-29; format: cell-based, human; settings: for %Cell death HT-29: time not given; for cytotoxicity at 20 µM: Homo sapiens
Description: (§1) A high-content imaging system (PerkinElmer; Operetta CLS), was used to quantify cell death and apoptosis by calculating the number of propidium iodide-positive cells relative to Hoechst-positive cells, and the number of Annexin V-positive cells relative to Hoechst-positive cells, respectively.

[1] = target: T1, 14-3-3ζ:BAD-112-136F interactions (Homo sapiens, UniProt P63104); assay: BRET sensor screen for disruption of 14-3-3ζ-Rluc8:BAD-112-136F-mCitrine in living NIH-3T3 cells; format: cell-based, murine; design: inhibition: dose or concentration left out as unconfirmed; BRET reduction on NIH-3T3: unit not given here; settings: for inhibition / inhibition at 20 µM: read-out: BRET reduction on NIH-3T3
T1 construct: expressed in transfected cells; host or cells: NIH-3T3 fibroblasts, bi-directional pBI-CMV1 plasmid
T1 sequence (P63104 1-245): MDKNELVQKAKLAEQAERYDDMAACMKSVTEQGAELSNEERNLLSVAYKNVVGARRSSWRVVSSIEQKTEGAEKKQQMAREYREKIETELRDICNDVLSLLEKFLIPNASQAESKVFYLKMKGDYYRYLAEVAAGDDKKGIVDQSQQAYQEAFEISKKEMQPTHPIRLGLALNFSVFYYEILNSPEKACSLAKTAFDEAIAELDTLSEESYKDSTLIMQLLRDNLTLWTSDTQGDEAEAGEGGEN
Procedure, shortened: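 NIH-3T3 cells were transfected with the BRET sensor two days beforehand, then replated on poly-L-ornithine-coated plates and grown 24 h at 37 °C. Medium was then replaced with Krebs buffer (pH 7.4). Z′-score was calculated to judge HTS robustness.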

Caco-2 cells = format: cell-based; settings: for Percentage of cell death % 24h CACO-2: 20 µM; for Percentage of cell death % 48h, Caco-2: 20 μM
Description: as §1

NIH-3T3 cells = assay: Hoechst/propidium iodide cell death assay in NIH-3T3; format: cell-based; settings: for cytotoxicity at 20 µM: Mus musculus, NIH3T3, 24 h, read-out: Percentage of cell death % 24h NIH3t3
Description: as §1

[2] = HT-29, 48 h, HT-29, 48h, 20 μM, read-out: Percentage of cell death % 48h, HT-29
[3] = NIH3T3, 3 h, NIH-3T3 cells, hits from the primary screen
[4] = NIH3T3, 3 h, NIH-3T3 expressing BRET sensor, 20 µM, 3 h
[5] = HT-29, 24 h, 20 µM, 24 h, read-out: Percentage of cell death % 24h HT-29
[6] = NIH-3T3 cells, hits from the primary screen
[7] = HT-29, 24 h, read-out: Percentage of cell death % 24h HT-29
[8] = HT-29, 48 h, read-out: Percentage of cell death % 48h, HT-29

Structure (SMILES)	%Cell death HT-29 (HT-29 cells; HT-29) [%]	cytotoxicity at 20 µM (HT-29 cells; [2]) [%]	inhibition [1, 3] [%]	inhibition at 20 µM [1, 4] [%]	Percentage of cell death % 24h CACO-2 (Caco-2 cells) [%]	Percentage of cell death % 48h, Caco-2 (Caco-2 cells) [%]	cytotoxicity at 20 µM (NIH-3T3 cells; 20 µM, 24 h) [%]	Percentage of cell death % 48h, NIH3T3 (NIH-3T3 cells) [%]	cytotoxicity at 20 µM (HT-29 cells; [5]) [%]	%Cell death Caco-2 (Caco-2 cells) [%]	also measured
CCCCc1oc2ccc(NS(C)(=O)=O)cc2c1C(=O)c1ccc(OCCCN(CCCC)CCCC)cc1 [Dronedarone]	79.0	79	50.4	50.4	69.9639	86.906	88.3	83.8385			Percentage of cell death % 24h HT-29 (HT-29 cells; 20 µM, 24 h): 52.4326%; %Cell death Caco-2 (Caco-2 cells; time not given, text says 48 h): 86.9%
O=C1Nc2ccc(Cl)cc2[C@@](C#CC2CC2)(C(F)(F)F)O1 [Efavirenz]	22.0	22	30.3	30.3			41.4	7.6471	18.5	20.5	
CCCCCCCCCCCC1=C(O)C(=O)C=C(O)C1=O [Embelin]	51.8	51.8	37	37			69.5	37.4899	19	1.7	
Cl.Cl.Fc1ccc(C(c2ccc(F)cc2)N2CCN(C/C=C/c3ccccc3)CC2)cc1 [Flunarizine 2HCl]					3.891	3.726		0.5715			Percentage of cell death % 24h HT-29 (HT-29 cells; 20 µM, 24 h): 0.7908%; Percentage of cell death % 48h, HT-29 (HT-29 cells; HT-29, 48h, 20 μM): 1.34%; BRET reduction on NIH-3T3 [1, 6]: 36.4286; BRET reduction on NIH-3T3 ([1]; NIH-3T3 expressing BRET sensor, 20 µM, 3 h): 36.4286; Percentage of cell death % 24h NIH3t3 (NIH-3T3 cells; 20 µM, 24 h): 0.377%
C=CCc1ccc(O)c(-c2ccc(O)c(CC=C)c2)c1 [Honokiol]		11.1	34.2	34.2	22.4688	15.5538	27.4	11.7537	8.61		
Clc1ccc(C(Cn2ccnc2)OCc2c(Cl)cccc2Cl)c(Cl)c1 (stereo not drawn) [Isoconazole nitrate]		3.88	45.1	45.1	5.943	5.407	8.57	4.218	1.88		
Cc1ccc(C(=O)N(CCCN)[C@@H](c2nc3cc(Cl)ccc3c(=O)n2Cc2ccccc2)C(C)C)cc1 [Ispinesib (SB-715992), Ispinesib]					86.1725	89.1796		78.7121			cytotoxicity at 20 µM (HT-29 cells; [7]): 50.8%; cytotoxicity at 20 µM (HT-29 cells; [8]): 86.7%; inhibition at 20 µM ([1]; NIH3T3, NIH-3T3 expressing BRET sensor, 20 µM, 3 h): 44.1%; BRET reduction on NIH-3T3 [1, 6]: 44.0919; cytotoxicity at 20 µM (NIH-3T3 cells): 87.5%
CC(C)(C)c1cc(C(C)(C)C)c(NC(=O)c2c[nH]c3ccccc3c2=O)cc1O [Ivacaftor (VX-770), Ivacaftor]		60.7	39	39	14.0443	14.6425	7.87	12.0089	9.35		
Cc1cc(Nc2cc(CN3CCOCC3)c3nc(C)c(Cc4ccc(Cl)cc4F)n3n2)n[nH]1 [LY2784544]		55.6	36.5	36.5	12.6848	17.5299	62.8	50.4683	6.62		
CCOC(=O)C1=C(C)NC(C)=C(C(=O)OCC)C1c1ccccc1/C=C/C(=O)OC(C)(C)C [Lacidipine]		2.6	27.1	27.1	4.66	4.938	0.275	0.2227	1.94		
CC(C)OC(=O)CCC/C=C\C[C@@H]1[C@@H](CC[C@@H](O)CCc2ccccc2)[C@H](O)C[C@@H]1O [Latanoprost]		1.45	29.5	29.5	2.638	2.117	1.31	0.6511	0.702		
C[C@H](CCC(=O)O)[C@H]1CC[C@H]2[C@@H]3CC[C@@H]4C[C@H](O)CC[C@]4(C)[C@H]3CC[C@]12C [Lithocholic Acid]		2.06	40.1	40.1	2.024	1.756	2.68	0.3149	0.614		
CCOC(=O)N1CCC(=C2c3ccc(Cl)cc3CCc3cccnc32)CC1 [Loratadine]		3.3	25.5	25.5	3.76	3.356	9.83	16.5359	0.925		
C=C[C@@H]1C[C@]1(NC(=O)[C@@H]1C[C@@H]2CN1C(=O)[C@H](C(C)(C)C)NC(=O)O[C@@H]1C[C@H]1CCCCCc1nc3ccc(OC)cc3nc1O2)C(=O)NS(=O)(=O)C1CC1 [MK-5172]		2.55	33.9	33.9	2.115	2.005	0.421	0.3254	0.694		
C=CCc1ccc(O)c(-c2cc(CC=C)ccc2O)c1 [Magnolol]					16.7853	10.8986		6.55			cytotoxicity at 20 µM (HT-29 cells; [7]): 15.8%; cytotoxicity at 20 µM (HT-29 cells; [8]): 20.3%; inhibition at 20 µM ([1]; NIH3T3, 3 h): 33.2%; BRET reduction on NIH-3T3 [1, 6]: 33.2336; cytotoxicity at 20 µM (NIH-3T3 cells): 15.7%
CO/N=C1\C[C@]2(C[C@@H]3C[C@@H](C/C=C(\C)C[C@@H](C)/C=C/C=C4\CO[C@@H]5[C@H](O)C(C)=C[C@@H](C(=O)O3)[C@]45O)O2)O[C@H](/C(C)=C/C(C)C)[C@H]1C [Moxidectin]	78.4	78.4	44	44			80.7	68.7026	8.61	8.4	
OC(CNCC(O)C1CCc2cc(F)ccc2O1)C1CCc2cc(F)ccc2O1 (stereo not drawn) [Nebivolol]	67.3	67.3	34.7	34.7			64.6	64.5697	9.8	45.0	
CN(C(=O)CN(CCO)CC(=O)N(C)C(C)(C)Cc1ccccc1)C(C)(C)Cc1ccccc1 [Oxethazaine]	53.1	53.1	28.9	28.9			28.2	9.9556	3.21	13.9	
CC(C)Oc1ccc(-c2nc(-c3cccc4c3CC[C@@H]4NCCO)no2)cc1C#N [Ozanimod (RPC1063), Ozanimod]		3.92	29.4	29.4	10.8525	17.0415	89.9	87.9452	1.29		
O=c1[nH]c2ccccc2n1C1CCN(CCCC(c2ccc(F)cc2)c2ccc(F)cc2)CC1 [Pimozide]	64.6	64.6					65.9	78.5926	11	59.9	inhibition at 20 µM ([1]; NIH3T3, 3 h): 38.4%; BRET reduction on NIH-3T3 [1, 6]: 38.4171

Source: article PMC12603070, “A high-throughput screening approach to discover potential colorectal cancer chemotherapeutics: repurposing drugs to identify novel disruptors of 14-3-3 proteins” (Cell Death & Disease, 2025)
